From patent US20250213494A1, “METHODS AND COMPOSITIONS FOR POTENTIATION OF A LIGAND” (priority 2022, published 2025)

Test system: RXFP1 gene expression in human fibroblast like synoviocytes
Test: RXFP1 gene expression by qPCR after corticosteroid treatment under fibrotic conditions
Assay type: cell-based
Conditions: qPCR (FIG. 3)
Excerpt: RXFP1 gene expression after treatment with (left) dexamethasone, (middle) methylprednisolone, and (right) cortisone under fibrotic conditions.

## C[C@]12CCC(=O)C=C1CC[C@@H]1[C@@H]2C(=O)C[C@@]2(C)[C@H]1CC[C@]2(O)C(=O)CO [cortisone]
  RXFP1 gene expression: increases RXFP1 gene expression
